The target in experiment [1] is EGFR (human) (UniProt P00533). The conditions noted are these: a431.
The target of experiment [2] is EGFR (human), P00533 [Antiproliferation of H195 Cells Having Overexpressed EGFR T790 Mutant Kinase].
Experiment [3] addresses EGFR (human) (UniProt P00533).
In experiment [4] the target is EGFR (human), P00533 [Assessment of EGFR T790 Mutant Kinase Activity].

Here are results for 46 compounds from the Kinase Knowledgebase extract (Sharma et al. 2016).

Chain of EGFR (human) (P00533 whole entry, looked up): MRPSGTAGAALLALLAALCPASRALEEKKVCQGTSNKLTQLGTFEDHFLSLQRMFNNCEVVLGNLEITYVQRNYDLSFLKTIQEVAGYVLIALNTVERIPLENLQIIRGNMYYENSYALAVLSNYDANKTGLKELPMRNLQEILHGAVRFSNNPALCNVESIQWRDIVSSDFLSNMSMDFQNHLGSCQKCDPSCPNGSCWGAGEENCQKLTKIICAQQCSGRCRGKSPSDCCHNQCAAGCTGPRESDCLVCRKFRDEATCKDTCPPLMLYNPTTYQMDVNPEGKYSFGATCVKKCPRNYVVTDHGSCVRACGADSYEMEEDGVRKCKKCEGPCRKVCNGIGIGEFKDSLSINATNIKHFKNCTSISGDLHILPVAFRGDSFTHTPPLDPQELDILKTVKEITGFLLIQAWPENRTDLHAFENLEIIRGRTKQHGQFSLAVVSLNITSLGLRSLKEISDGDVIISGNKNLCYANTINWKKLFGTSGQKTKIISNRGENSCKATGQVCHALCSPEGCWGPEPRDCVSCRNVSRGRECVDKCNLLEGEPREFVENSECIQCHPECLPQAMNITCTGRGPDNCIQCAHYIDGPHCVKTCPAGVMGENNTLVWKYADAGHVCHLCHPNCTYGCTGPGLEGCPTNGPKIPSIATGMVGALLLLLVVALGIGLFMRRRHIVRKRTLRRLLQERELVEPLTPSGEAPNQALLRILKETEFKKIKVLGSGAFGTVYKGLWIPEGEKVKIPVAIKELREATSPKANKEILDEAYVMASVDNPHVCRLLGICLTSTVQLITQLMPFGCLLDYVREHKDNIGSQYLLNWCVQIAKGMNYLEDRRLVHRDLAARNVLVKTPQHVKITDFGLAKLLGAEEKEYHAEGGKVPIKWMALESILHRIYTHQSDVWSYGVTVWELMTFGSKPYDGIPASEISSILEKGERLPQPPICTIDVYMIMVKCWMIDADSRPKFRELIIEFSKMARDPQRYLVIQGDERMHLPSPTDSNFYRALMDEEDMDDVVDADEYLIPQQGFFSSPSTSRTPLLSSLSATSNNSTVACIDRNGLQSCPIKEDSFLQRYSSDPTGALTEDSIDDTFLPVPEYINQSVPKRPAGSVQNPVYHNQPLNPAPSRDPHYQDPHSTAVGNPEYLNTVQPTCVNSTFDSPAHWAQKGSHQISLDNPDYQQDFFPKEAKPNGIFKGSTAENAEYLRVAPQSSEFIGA
Chain of EGFR (human), P00533 [Antiproliferation of H195 Cells Having Overexpressed EGFR T790 Mutant Kinase] (P00533 whole entry, looked up, change not shown): as the sequence (P00533 whole entry, looked up) above
Chain of EGFR (human), P00533 [Assessment of EGFR T790 Mutant Kinase Activity] (P00533 whole entry, looked up, change not shown): as the sequence (P00533 whole entry, looked up) above

A word on the IC50: it is the midpoint of a concentration-inhibition curve. For the compound `C=CC(=O)N1CC[C@H](Oc2cc3c(Nc4ccc(F)c(Cl)c4F)ncnc3cc2OC)C[C@H]1C(=O)NCCS(C)(=O)=O`, the IC50 against EGFR (human) [1] was found to be 2.2 nM; in experiment [2] it was 50.4 nM.

On to `C=CC(=O)N1CCC(Oc2cc3c(Nc4ccc(F)c(Cl)c4)ncnc3cc2OC)CC1`, for which the half-inhibitory concentration (IC50) against EGFR (human) [1] came to 17 nM; in experiment [2], 16 nM.

For `C=CC(=O)N1CC[C@H](Oc2cc3c(Nc4ccc(F)c(Cl)c4F)ncnc3cc2OC)C[C@H]1C(N)=O`, the half-maximal inhibitory concentration (IC50) against EGFR (human) [1] stood at 3 nM; in experiment [2] it was 5.2 nM.

As to `C=CC(=O)N1CC[C@H](Oc2cc3c(Nc4ccc(F)c(Cl)c4F)ncnc3cc2OC)C[C@H]1C(=O)NCCO`, the IC50 on EGFR (human) [1] worked out at 5.4 nM; in experiment [2], 39 nM.

`C=CC(=O)N1CC[C@H](Oc2cc3c(Nc4ccc(F)c(Cl)c4F)ncnc3cc2OC)C1`: the IC50 at EGFR (human) [1] stood at 4 nM; on EGFR (human) [3], 3 nM; in experiment [2], 80 nM.

For the compound `C=CC(=O)N1CC[C@@H](Oc2cc3c(Nc4ccc(F)c(Cl)c4F)ncnc3cc2OC)C[C@@H]1C(=O)NC`, the figures for the half-maximal inhibitory concentration (IC50) (on EGFR (human) [1]; in experiment [2]) were 2.9 nM and 2.6 nM, respectively.

For `C=CC(=O)N1CC[C@H](Oc2cc3c(Nc4ccc(F)c(Cl)c4F)ncnc3cc2OC)C[C@H]1C(=O)NCCN(C)C`, the half-maximal inhibitory concentration (IC50) against EGFR (human) [1] was found to be 5.7 nM; in experiment [2], 30 nM.

Turning to `C=CC(=O)N1CC[C@H](Oc2cc3c(Nc4ccc(Br)c(Cl)c4F)ncnc3cc2OC)C1`, the IC50 at EGFR (human) [1] amounted to 5 nM; in experiment [2] it was 55 nM.

As to `C=CC(=O)N1CCC(Oc2cc3c(Nc4cccc(C)c4)ncnc3cc2OC)CC1`, the IC50 against EGFR (human) [1] stood at 1 nM; in experiment [2], 236 nM.

Consider `C=CC(=O)N1CCC(Oc2cc3c(Nc4cccc(Br)c4)ncnc3cc2OC)CC1`, for which the figures for the concentration for half-maximal inhibition (IC50) (against EGFR (human) [1]; in experiment [2]) were 1 nM and 96 nM, respectively.

On to `C=CC(=O)N1CC[C@H](Oc2cc3c(Nc4ccc(F)c(Cl)c4F)ncnc3cc2OC)C[C@H]1C(=O)NCCSC`, for which the concentration for half-maximal inhibition (IC50) stood at 2.4 nM against EGFR (human) [1] and 5 nM in experiment [2].

On to `C=CC(=O)N1CC(Oc2cc3c(Nc4cccc(Cl)c4)ncnc3cc2OC)C1`, for which the results for the half-maximal inhibitory concentration (IC50) (against EGFR (human) [1]; in experiment [2]) were 1.6 nM and 17.7 nM, respectively.

Turning to `C=CC(=O)N1CCC(Oc2cc3c(Nc4cccc(Cl)c4F)ncnc3cc2OC)CC1`, the IC50 on EGFR (human) [1] was 2 nM; in experiment [2], 22 nM.

For `C=CC(=O)N1CCC(Oc2cc3c(Nc4ccc(F)c(Cl)c4F)ncnc3cc2OCCOC)CC1`, the results for the 50% inhibitory concentration (IC50) (on EGFR (human) [1]; in experiment [2]) were 4 nM and 47 nM, respectively.

In experiment [4], `C=CC(=O)N1CCC(Oc2cc3c(Nc4ccc(F)c(Cl)c4F)ncnc3cc2OC)CC1` registered an IC50 of 24 nM.

For `C=CC(=O)N1CCC(Oc2cc3c(Nc4cccc(C=C)c4)ncnc3cc2OC)CC1`, the IC50 against EGFR (human) [1] was found to be 1.9 nM; in experiment [2] it was 27 nM.

For `COc1cc2ncnc(Nc3cccc(Cl)c3F)c2cc1OC1CCN(C(=O)CO)CC1`, the IC50 amounted to 39 nM on EGFR (human) [1] and 204 nM against EGFR (human) [3].

On to `C=C(CN(C)C)C(=O)N1CC(Oc2cc3c(Nc4ccc(F)c(Cl)c4F)ncnc3cc2OC)C1`, for which the half-maximal inhibitory concentration (IC50) against EGFR (human) [1] was 41 nM; in experiment [2], 11 nM.

For `C=CC(=O)N1CC[C@@H](Oc2cc3c(Nc4ccc(F)c(Cl)c4F)ncnc3cc2OC)C[C@@H]1C(N)=O`, the concentration for half-maximal inhibition (IC50) stood at 0.8 nM at EGFR (human) [1] and 5.2 nM in experiment [2].

Take `C=CC(=O)N1CC(Oc2cc3c(Nc4cccc(Cl)c4F)ncnc3cc2OC)C1`: the IC50 worked out at 1.6 nM at EGFR (human) [1] and 9 nM in experiment [2].

Regarding `C=C(NC(C)=O)C(=O)N1CC(Oc2cc3c(Nc4ccc(F)c(Cl)c4F)ncnc3cc2OC)C1`, the results for the IC50 (against EGFR (human) [1]; in experiment [2]) were 3.1 nM and 50 nM, respectively.

For `C=CC(=O)N1CC[C@H](Oc2ccc3ncnc(Nc4ccc(F)c(Cl)c4F)c3c2)C1`, the IC50 at EGFR (human) [1] worked out at 5 nM; in experiment [2], 413 nM.

For the compound `C=C(CN1CCOCC1)C(=O)N1CC(Oc2cc3c(Nc4ccc(F)c(Cl)c4F)ncnc3cc2OC)C1`, the IC50 is 1.5 nM on EGFR (human) [1] and 8 nM in experiment [2].

With `C=CC(=O)N1CC(Oc2cc3c(Nc4ccc(F)c(Cl)c4F)ncnc3cc2OC)C1`, the 50% inhibitory concentration (IC50) worked out at 0.3 nM against EGFR (human) [1] and 1.5 nM in experiment [2].

In the case of `COc1cc2ncnc(Nc3ccc(F)c(Cl)c3F)c2cc1OC1CN(C(=O)/C=C\Cl)C1`, the IC50 against EGFR (human) [1] stood at 2.4 nM; in experiment [2] it was 19 nM.

For the compound `C=CC(=O)N1CC(Oc2cc3c(N[C@H](C)c4ccccc4)ncnc3cc2OC)C1`, the half-inhibitory concentration (IC50) against EGFR (human) [1] is 7 nM; in experiment [2], 156 nM.

The compound `C=CC(=O)N1CCC(Oc2cc3c(Nc4ccc(F)c(C)c4)ncnc3cc2OC)CC1` returned an IC50 on EGFR (human) [1] of 8 nM.

At EGFR (human) [1], `COC(=O)/C=C\C(=O)N1CCC(Oc2cc3c(Nc4ccc(Cl)c(Cl)c4F)ncnc3cc2OC)CC1` returned an IC50 of 8 nM.

For the compound `C=CC(=O)N1CC[C@@H](Oc2cc3c(Nc4ccc(Cl)c(Cl)c4F)ncnc3cc2OC)C[C@@H]1C(N)=O`, the 50% inhibitory concentration (IC50) at EGFR (human) [1] is 0.8 nM; in experiment [2], 1.1 nM.

In turn, `C=CC(=O)N1CCC(Oc2cc3c(Nc4ccc(O)c(Cl)c4)ncnc3cc2OC)CC1` registered an IC50 on EGFR (human) [1] of 109 nM.

`C#Cc1cccc(Nc2ncnc3cc(OC)c(OC4CCN(C(=O)C=C)CC4)cc23)c1`: the half-maximal inhibitory concentration (IC50) on EGFR (human) [1] turned out to be 52 nM.

At EGFR (human) [1], `C=CC(=O)N1CCC(Oc2cc3c(Nc4cccc(Cl)c4OC)ncnc3cc2OC)CC1` returned an IC50 of 3 nM.

Take `CN(C)C/C=C/C(=O)N1CC[C@H](Oc2ccc3ncnc(Nc4ccc(F)c(Cl)c4F)c3c2)C1`: on EGFR (human) [1], the half-maximal inhibitory concentration (IC50) was 25 nM.

As to `C=CC(=O)N1CC[C@H](Oc2cc3c(N[C@H](C)c4ccccc4)ncnc3cc2OC)C1`, the IC50 on EGFR (human) [1] is 8 nM; in experiment [2] it was 167 nM.

Consider `C=CC(=O)N1CC[C@H](Oc2cc3c(Nc4ccc(F)c(Cl)c4F)ncnc3cc2OC)C[C@H]1C(=O)NCCOC`, for which the figures for the half-maximal inhibitory concentration (IC50) (on EGFR (human) [1]; in experiment [2]) were 3.4 nM and 11 nM, respectively.

On to `COc1cc2ncnc(Nc3ccc(F)c(Cl)c3F)c2cc1O[C@H]1CCN(C(=O)/C=C/CN(C)C)C1`, for which the IC50 against EGFR (human) [1] stood at 4 nM.

In turn, `C=C(CN(C)C)C(=O)N1CCC(Oc2cc3c(Nc4ccc(Cl)c(Cl)c4F)ncnc3cc2OC)CC1` came in with an IC50 on EGFR (human) [1] of 4 nM.

As for `C=CC(=O)N1CCC(Oc2cc3c(Nc4ccc(Br)c(C)c4)ncnc3cc2OC)CC1`, the concentration for half-maximal inhibition (IC50) against EGFR (human) [1] came out at 6 nM; in experiment [2], 48 nM.

On EGFR (human) [1], `CC#CC(=O)N1CC[C@H](Oc2cc3c(Nc4ccc(F)c(Cl)c4F)ncnc3cc2OC)C1` registered an IC50 of 37 nM.

Compound `C=CC(=O)N1CC[C@H](Oc2ccc3ncnc(Nc4ccc(OCc5cccc(F)c5)c(Cl)c4)c3c2)C1` came in with an IC50 at EGFR (human) [1] of 15 nM.

Consider `C=CC(=O)N1CC[C@H](Oc2cc3c(Nc4ccc(OCc5ccccn5)c(Cl)c4)ncnc3cc2OC)C1`, for which, at EGFR (human) [1], the IC50 was 14 nM.

In the case of `C=CC(=O)N1CC[C@@H](Oc2cc3c(Nc4ccc(F)c(Cl)c4F)ncnc3cc2OC)C[C@@H]1C(=O)O`, at EGFR (human) [1], the IC50 is 979 nM.

For the compound `C=CC(=O)N1CC[C@@H](Oc2cc3c(Nc4ccc(F)c(Cl)c4F)ncnc3cc2OC)C[C@@H]1C(=O)OC`, the IC50 at EGFR (human) [1] was 0.7 nM; in experiment [2], 5.4 nM.

For the compound `CNC(=O)/C=C/C(=O)N1CC(Oc2cc3c(Nc4ccc(F)c(Cl)c4F)ncnc3cc2OC)C1`, at EGFR (human) [1], the IC50 turned out to be 41 nM.

For `C=CC(=O)N1CCC(Oc2cc3c(Nc4ccc(C(C)C)cc4)ncnc3cc2OC)CC1`, the IC50 against EGFR (human) [1] was 23 nM.

Take `C=CC(=O)N1CC[C@@H](Oc2cc3c(Nc4ccc(F)c(Cl)c4F)ncnc3cc2OC)C1`: on EGFR (human) [1], the IC50 was found to be 222 nM.
